The values below come from US20230303483A1, “USE OF STROBILURIN TYPE COMPOUNDS FOR COMBATING PHYTOPATHOGENIC FUNGI CONTAINING AN AMINO ACID SUBSTITUTION F129L IN THE MITOCHONDRIAL CYTOCHROME B PROTEIN CONFERRING RESISTANCE TO QO […]” (BASF SE, priority 2020, published 2023).

Assay [1] deals with Phakopsora pachyrhizi (strain containing the amino acid substitution F129L in the mitochondrial cytochrome b protein). The assay is described as follows: Use example 1: protective control of soybean rust on soybeans (PHAKPA P2), inoculation 2 days after spraying. In kind it is in vivo. Conditions: % diseased leaf area on soybean, 16 ppm spray, inoculation 2 days after treatment, untreated controls usually >85 %. As for the experimental part:
(§1) The compound was dissolved in a mixture of acetone and/or dimethylsulfoxide and the wetting agent/emulsifier Wettol, which is based on ethoxylated alkylphenoles, in a ratio (volume) solvent-emulsifier of 99 to 1 to give a total volume of 5 ml. Subsequently, water was added to total volume of 100 ml. This stock solution was then diluted with the described solvent-emulsifier-water mixture to the final concentration given in the table below.
Use example 1. Protective control of soybean rust on soybeans caused by Phakopsora pachyrhizi (PHAKPA P2)
(§2) Leaves of potted soybean seedlings were sprayed to run-off with the previously described spray solution, containing the concentration of active ingredient or their mixture as described below. The plants were allowed to air-dry. The trial plants were cultivated for 2 days in a greenhouse chamber at 23-27° C. and a relative humidity between 60 and 80 %. Then the plants were inoculated with spores of Phakopsora pachyrhizi. The strain used contains the amino acid substitution F129L in the mitochondrial cytochrome b protein conferring resistance to Qo inhibitors. To ensure the success the artificial inoculation, the plants were transferred to a humid chamber with a relative humidity of about 95 % and 20 to 24° C. for 24 hr. The trial plants were cultivated for up to 14 days in a greenhouse chamber at 23 to 27° C. and a relative humidity between 60 and 80 %. The extent of fungal attack on the leaves was visually assessed as % diseased leaf area, the disease level of untreated controls was usually higher than 85 %.
(§3) All test results below are given for the control of phytopathogenic fungi containing the amino acid substitution F129L in the mitochondrial cytochrome b protein conferring resistance to Qo inhibitors.

The test system is the same in assay [2]. As to the kind of experiment: Use example 2: protective control of soybean rust on soybeans (PHAKPA P6), inoculation six days after spraying. The assay is classed as in vivo. Conditions: % diseased leaf area on soybean, 16 ppm spray, inoculation six days after treatment, untreated controls usually >85 %. As to the method: as §1
Use example 2. Protective control of soybean rust on soybeans caused by Phakopsora pachyrhizi (PHAKPA P6)
as §2, with “active ingredient as described” for “active ingredient or their mixture as described”, “cultivated for six days in” for “cultivated for 2 days in”, “% and 23 to 27°” for “% and 20 to 24°”, “23 to 27° C. for” for “20 to 24° C. for”
as §3

As to `CNC(=O)/C(=N/OC)c1ccccc1CO/N=C(\C)C#Cc1ccc(Cl)cc1C1CC1` [Example 86], the “PHAKPA Disease level (%) P2 at 16 ppm” value in assay [1] is recorded as 5%. Also, the “PHAKPA Disease level (%) P6 at 16 ppm” value in assay [2] is on record as 18%.

With `CNC(=O)/C(=N/OC)c1ccccc1CO/N=C(\C)C#Cc1ccc(OC(C)C)cc1` [Example 88], in assay [1], the “PHAKPA Disease level (%) P2 at 16 ppm” value worked out at 77%. The “PHAKPA Disease level (%) P6 at 16 ppm” value in assay [2] is recorded as 60%.

As for `CO/N=C(/C(=O)OC)c1ccccc1CO/N=C(\C)C#Cc1ccc(Cl)cc1F` [Example 90], the “PHAKPA Disease level (%) P2 at 16 ppm” value in assay [1] turned out to be 30%. Further, the “PHAKPA Disease level (%) P6 at 16 ppm” value in assay [2] is 57%.

As for `CO/N=C(/C(=O)OC)c1ccccc1CO/N=C(\C)C#Cc1ccc(Cl)cc1C1CC1` [Example 91], the “PHAKPA Disease level (%) P2 at 16 ppm” value in assay [1] is reported as 53%. Further, the “PHAKPA Disease level (%) P6 at 16 ppm” value in assay [2] turned out to be 43%.

In the case of `CNC(=O)/C(=N/OC)c1ccccc1CO/N=C(\C)C#Cc1ccc(C2CC2)cc1` [Example 92], in assay [1], the “PHAKPA Disease level (%) P2 at 16 ppm” value is recorded as 60%. Besides, in assay [2], the “PHAKPA Disease level (%) P6 at 16 ppm” value is 57%.

On to `CO/N=C(/C(=O)OC)c1ccccc1CO/N=C(\C)C#Cc1c(Cl)cccc1Cl` [Example 93], for which the “PHAKPA Disease level (%) P2 at 16 ppm” value in assay [1] is on record as 87%. The “PHAKPA Disease level (%) P6 at 16 ppm” value in assay [2] is recorded as 97%.

For the molecule `CO/N=C(/C(=O)OC)c1ccccc1CO/N=C(\C)C#Cc1ccc(Cl)cc1C(F)(F)F` [Example 94], the “PHAKPA Disease level (%) P2 at 16 ppm” value in assay [1] was 53%. In addition, in assay [2], the “PHAKPA Disease level (%) P6 at 16 ppm” value stood at 47%.

Consider `CO/N=C(/C(=O)OC)c1ccccc1CO/N=C(\C)C#Cc1ccc(OCC(F)(F)F)cc1` [Example 98], for which the “PHAKPA Disease level (%) P2 at 16 ppm” value in assay [1] amounted to 73%. Moreover, the “PHAKPA Disease level (%) P6 at 16 ppm” value in assay [2] was determined as 93%.

For the molecule `CNC(=O)/C(=N/OC)c1ccccc1CO/N=C(\C)C#Cc1ccc(Cl)cc1C(F)(F)F` [Example 99], the “PHAKPA Disease level (%) P2 at 16 ppm” value in assay [1] is 0%. The “PHAKPA Disease level (%) P6 at 16 ppm” value in assay [2] amounted to 0%.

For the molecule `CO/N=C(/C(=O)OC)c1ccccc1CO/N=C(\C)C#Cc1ccc(Oc2ccc(F)cc2)cc1` [Example 100], the “PHAKPA Disease level (%) P2 at 16 ppm” value in assay [1] was 77%. The “PHAKPA Disease level (%) P6 at 16 ppm” value in assay [2] was found to be 77%.

Turning to `CNC(=O)/C(=N/OC)c1ccccc1CO/N=C(\C)C#Cc1cccc2c1OC(F)(F)O2` [Example 101], the “PHAKPA Disease level (%) P2 at 16 ppm” value in assay [1] was 4%. In assay [2], the “PHAKPA Disease level (%) P6 at 16 ppm” value worked out at 2%.

As for `CO/N=C(/C(=O)OC)c1ccccc1CO/N=C(\C)C#Cc1ccc(OC2CC2)cc1` [Example 102], the “PHAKPA Disease level (%) P2 at 16 ppm” value in assay [1] worked out at 80%. In assay [2], the “PHAKPA Disease level (%) P6 at 16 ppm” value amounted to 63%.

For the molecule `CO/N=C(/C(=O)OC)c1ccccc1CO/N=C(\C)C#Cc1cccc2c1OC(F)(F)O2` [Example 103], the “PHAKPA Disease level (%) P2 at 16 ppm” value in assay [1] turned out to be 28%. For the same molecule, in assay [2], the “PHAKPA Disease level (%) P6 at 16 ppm” value is on record as 22%.

For `CNC(=O)/C(=N/OC)c1ccccc1CO/N=C(\C)C#Cc1ccc(OCC(F)(F)F)cc1` [Example 104], in assay [1], the “PHAKPA Disease level (%) P2 at 16 ppm” value was determined as 53%. Also, the “PHAKPA Disease level (%) P6 at 16 ppm” value in assay [2] is listed as 32%.

With `CNC(=O)/C(=N/OC)c1ccccc1CO/N=C(\C)C#Cc1ccc(OC2CC2)cc1` [Example 106], the “PHAKPA Disease level (%) P2 at 16 ppm” value in assay [1] came to 23%. For the same molecule, the “PHAKPA Disease level (%) P6 at 16 ppm” value in assay [2] came to 13%.

Turning to `CNC(=O)/C(=N/OC)c1ccccc1CO/N=C(\C)C#Cc1c(Cl)cccc1Cl` [Example 107], the “PHAKPA Disease level (%) P2 at 16 ppm” value in assay [1] came to 27%. For the same molecule, the “PHAKPA Disease level (%) P6 at 16 ppm” value in assay [2] was found to be 15%.

Consider `CO/N=C(/C(=O)OC)c1ccccc1CO/N=C(\C)C#Cc1c(C2CC2)cccc1C(F)(F)F` [Example 108], for which, in assay [1], the “PHAKPA Disease level (%) P2 at 16 ppm” value is 90%. Besides, the “PHAKPA Disease level (%) P6 at 16 ppm” value in assay [2] is 87%.

As for `CO/N=C(/C(=O)OC)c1ccccc1CO/N=C(\C)C#Cc1ccc(Cl)cc1C(C)C` [Example 109], the “PHAKPA Disease level (%) P2 at 16 ppm” value in assay [1] stood at 11%. In addition, the “PHAKPA Disease level (%) P6 at 16 ppm” value in assay [2] was 12%.

With `CNC(=O)/C(=N/OC)c1ccccc1CO/N=C(\C)C#Cc1ccc(Cl)cc1C(C)C` [Example 110], the “PHAKPA Disease level (%) P2 at 16 ppm” value in assay [1] turned out to be 0%. In assay [2], the “PHAKPA Disease level (%) P6 at 16 ppm” value is listed as 2%.

Consider `CNC(=O)/C(=N/OC)c1ccccc1CO/N=C(\C)C#Cc1ccc(Oc2ccc(F)cc2)cc1` [Example 111], for which the “PHAKPA Disease level (%) P2 at 16 ppm” value in assay [1] is reported as 33%. The “PHAKPA Disease level (%) P6 at 16 ppm” value in assay [2] is given as 23%.

For the molecule `CNC(=O)/C(=N/OC)c1ccccc1CO/N=C(/C#Cc1ccc(Cl)cc1)COC` [Example 112], the “PHAKPA Disease level (%) P2 at 16 ppm” value in assay [1] is reported as 38%. Moreover, the “PHAKPA Disease level (%) P6 at 16 ppm” value in assay [2] worked out at 25%.

For the molecule `COC/C(C#Cc1ccc(Cl)cc1)=N\OCc1ccccc1/C(=N\OC)C(=O)OC` [Example 113], the “PHAKPA Disease level (%) P2 at 16 ppm” value in assay [1] is recorded as 87%. Moreover, the “PHAKPA Disease level (%) P6 at 16 ppm” value in assay [2] stood at 77%.

On to `CO/C=C(/C(=O)OC)c1ccccc1CO/N=C(\C)C#Cc1ccc(F)cc1` [Example 114], for which the “PHAKPA Disease level (%) P2 at 16 ppm” value in assay [1] is 0%. Also, in assay [2], the “PHAKPA Disease level (%) P6 at 16 ppm” value came out at 0%.

Regarding `CNC(=O)/C(=N/OC)c1ccccc1CO/N=C(\C)C#Cc1ccc(Cl)cc1-c1ccc(F)cc1` [Example 115], in assay [1], the “PHAKPA Disease level (%) P2 at 16 ppm” value stood at 2%. Also, the “PHAKPA Disease level (%) P6 at 16 ppm” value in assay [2] was determined as 1%.

Turning to `CO/N=C(/C(=O)OC)c1ccccc1CO/N=C(\C)C#Cc1ccc(Cl)cc1-c1ccc(F)cc1` [Example 118], in assay [1], the “PHAKPA Disease level (%) P2 at 16 ppm” value was 3%. In assay [2], the “PHAKPA Disease level (%) P6 at 16 ppm” value is recorded as 4%.

Regarding `CNC(=O)/C(=N/OC)c1ccccc1CO/N=C(\C)C#Cc1c(C2CC2)cccc1C(F)(F)F` [Example 119], in assay [1], the “PHAKPA Disease level (%) P2 at 16 ppm” value came out at 77%. Also, in assay [2], the “PHAKPA Disease level (%) P6 at 16 ppm” value was determined as 77%.

Consider `CNC(=O)/C(=N/OC)c1ccccc1CO/N=C(\C)C#Cc1ccc(OC(F)(F)F)cc1C1CC1` [Example 120], for which, in assay [1], the “PHAKPA Disease level (%) P2 at 16 ppm” value came out at 15%. The “PHAKPA Disease level (%) P6 at 16 ppm” value in assay [2] is reported as 22%.

Regarding `CO/N=C(/C(=O)OC)c1ccccc1CO/N=C(\C)C#Cc1ccc(OC(F)(F)F)cc1C1CC1` [Example 121], in assay [1], the “PHAKPA Disease level (%) P2 at 16 ppm” value is recorded as 87%. Moreover, the “PHAKPA Disease level (%) P6 at 16 ppm” value in assay [2] amounted to 53%.

Take `CO/C=C(/C(=O)OC)c1cccc(C)c1CO/N=C(\C)C#Cc1ccc(F)c(C(=O)OC)c1` [Example 122]: in assay [1], the “PHAKPA Disease level (%) P2 at 16 ppm” value turned out to be 73%. For the same molecule, in assay [2], the “PHAKPA Disease level (%) P6 at 16 ppm” value stood at 60%.

For the molecule `CO/N=C(/C(=O)OC)c1cccc(C)c1CO/N=C(\C)C#Cc1ccc(F)c(C(=O)OC)c1` [Example 123], the “PHAKPA Disease level (%) P2 at 16 ppm” value in assay [1] worked out at 43%. Also, the “PHAKPA Disease level (%) P6 at 16 ppm” value in assay [2] is recorded as 37%.

For the molecule `CO/C=C(/C(=O)OC)c1cccc(C)c1CO/N=C(\C)C#Cc1ccc(F)cc1C(=O)OC` [Example 124], in assay [1], the “PHAKPA Disease level (%) P2 at 16 ppm” value is recorded as 14%. The “PHAKPA Disease level (%) P6 at 16 ppm” value in assay [2] was found to be 53%.

As to `CO/N=C(/C(=O)OC)c1cccc(C)c1CO/N=C(\C)C#Cc1ccc(F)cc1C(=O)OC` [Example 125], the “PHAKPA Disease level (%) P2 at 16 ppm” value in assay [1] was 17%. Moreover, in assay [2], the “PHAKPA Disease level (%) P6 at 16 ppm” value came out at 45%.

As for `CO/N=C(/C(=O)OC)c1cccc(C)c1CO/N=C(\C)C#Cc1ccc(F)cc1C(=O)OC` [Example 127], the “PHAKPA Disease level (%) P2 at 16 ppm” value in assay [1] worked out at 53%. Moreover, the “PHAKPA Disease level (%) P6 at 16 ppm” value in assay [2] came to 47%.
